Earlier results on 1 substance are cited in patent US20190314394A1, “IMMUNE-POTENTIATING DRUG NANOCARRIERS AND METHODS OF PRODUCTION AND USE THEREOF” (priority 2013, published 2019).

The test system of this data set is HLA-DR molecules. Particulars: 15 out of 16 of the most prevalent HLA-DR molecules; read-out: IC50 (high or intermediate affinity binding).

The term IC50 denotes the midpoint of a concentration-inhibition curve. In the case of “aKXVAAWTLKAAa (SEQ ID NO: 5) (AKAVAAWTLKAAA; D-alanine termini, cyclohexylalanine; MOD_RES (1)..(1) D-Alanine; MOD_RES (3)..(3) Cyclohexylalanine; MOD_RES (13)..(13) D-Alanine) [PADRE peptide variant; a=D-alanine, X=cyclohexylalanine]”, the IC50 was below 1000 nM.
